{
  "source": "patent US20090274698A1",
  "about": "“Combination anti-cancer therapy” (priority 2007, published 2009)",
  "key": {"[1]": {"system": "pAkt (Ser 473) in Ovcar3 cells", "experiment": "Western blot of pAkt (Ser 473) in Ovcar3 cells (FIG. 9, 10)", "format": "cell-based, human", "details": "Ovcar3, 24 hours; 10 nM rapamycin, 10 μM irinotecan", "source_text": "FIG. 9. Compound B inhibits irinotecan-induced Akt phosphorylation and enhances irinotecan-induced apoptosis in ovarian tumor cells. […] Phospho-Akt was detected using an antoibody specific to Serine 473. […] Apoptosis is expressed as the fold increase in induction relative to DMSO-treated cells.\nFIG. 10. Compound B inhibits doxorubicin-induced Akt phosphorylation and enhances doxorubicin-induced apoptosis in ovarian tumor cells. […] Phospho-Akt was detected using an antibody specific to Serine 473. […] Apoptosis is expressed as the fold increase in induction relative to DMSO-treated cells."}, "[2]": {"system": "pAkt", "experiment": "Western blot of pAkt in a panel of cell lines from various tumor types", "format": "cell-based, human", "experimental": "(§1) Cell extracts were prepared by detergent lysis (50 mM Tris-HCl, pH 8.0, 150 mM NaCl, 1% NP-40, 0.5% sodium deoxycholate, 0.1% SDS, containing protease inhibitor (P8340, Sigma, St. Louis, Mo.) and phosphatase inhibitor (P5726, Sigma, St. Louis, Mo.) cocktails. The soluble protein concentration was determined by micro-BSA assay (Pierce, Rockford Ill.). Protein immunodetection was performed by electrophoretic transfer of SDS-PAGE separated proteins to nitrocellulose, incubation with antibody, and chemiluminescent second step detection (PicoWest; Pierce, Rockford, Ill.). The antibodies included: phospho-Akt(473), phospho-Akt(308), and total Akt. All antibodies were obtained from Cell Signaling Technology, Inc. (Danvers, Mass.). For analysis of an agent's effect on the phosphorylation of downstream signaling proteins, cell lines were grown to approximately 70% confluency, at which time the indicated agent was added at the indicated concentration, and cells were incubated at 37° C. for 24 hours. The media was removed, cells were washed two times with PBS, and cells were lysed as previously described."}, "[3]": {"system": "tumor cell lines", "experiment": "Anti-proliferative activity across tumor cell lines (statement of the description)", "format": "cell-based"}, "[4]": {"system": "MDA-MB-231 cells", "experiment": "Apoptosis (Caspase 3/7 Glo) in MDA-MB-231 cells", "format": "cell-based, human", "details": "MDA-MB-231, 24 hours, Caspase 3/7 activity", "method": "Apoptosis was measured 24 hrs after treatment. […] Measurements were made 24 hours after treatments, and apoptosis was evaluated by fold induction in Caspase 3/7 activity."}, "[5]": {"system": "pAkt (Ser 473) in MDA-MB-231 tumor cells", "experiment": "Western blot of pAkt (Ser 473) in MDA-MB-231 tumor cells", "details": "MDA-MB-231, 24 hours", "experimental": "Cells were treated for 24 hours prior to harvesting lysates. Ctrl=control.\nas §1"}, "[6]": {"system": "pAkt (serine 473) in ovarian tumor cells", "experiment": "Western blot of pAkt (serine 473) in ovarian cell lines, gemcitabine study (FIG. 11A)", "format": "cell-based, human", "details": "gemcitabine 1 μM, Compound B 10 μM, rapamycin 10 nM, 24 hours", "experimental": "as §1"}, "[7]": {"system": "pAkt-S473 in ovarian carcinoma cell lines (Ovcar3, SKov3, MDAH 2774, CaOV3)", "experiment": "Western blot of phospho-Akt(S473) in ovarian carcinoma cell lines, cisplatin study (FIG. 8)", "details": "10 nM rapamycin, 20 μM Compound A, 30 μM cisplatin, 24 hours", "experimental": "Band density was determined and relative levels of phospho-Akt(S473) are expressed graphically relative to DMSO-treated control lysate. Four ovarian cell lines were assayed (A) Ovcar3, (B) SKov3, (C) MDAH 2774, (D) CaOV3.\nas §1"}},
  "data": [
    {"compound": "CCc1c2c(nc3ccc(OC(=O)N4CCC(N5CCCCC5)CC4)cc13)-c1cc3c(c(=O)n1C2)COC(=O)[C@]3(O)CC", "note": "[irinotecan]", "values": [
      {"measurement": "effect on pAkt levels, single agent", "setting": "[1]", "result": "causes an induction in pAkt levels"}
    ]},
    {"compound": "CO[C@H]1C[C@@H]2CC[C@@H](C)[C@@](O)(O2)C(=O)C(=O)N2CCCC[C@H]2C(=O)O[C@H]([C@H](C)C[C@@H]2CC[C@@H](O)[C@H](OC)C2)CC(=O)[C@H](C)/C=C(\\C)[C@@H](O)[C@@H](OC)C(=O)[C@H](C)C[C@H](C)/C=C/C=C/C=C/1C", "note": "[Rapamycin]", "values": [
      {"measurement": "tumor cells tested in which pAKT is induced", "setting": "[2]; Table 2", "result": "~62", "unit": "%"},
      {"measurement": "cancer cell lines in which pAkt (S473) is inhibited", "setting": "[2]; statement of the description", "result": "~20", "unit": "%"},
      {"measurement": "cell lines in which treatment increases pAkt (S473)", "setting": "[2]; statement of the description", "result": "~65", "unit": "%"},
      {"measurement": "cell lines in a given tumor type that are insensitive (anti-proliferative activity)", "setting": "[3]", "result": "approximately 50%"}
    ]},
    {"compound": "COc1cccc2c1C(=O)c1c(O)c3c(c(O)c1C2=O)C[C@@](O)(C(=O)CO)C[C@@H]3O[C@H]1C[C@H](N)[C@H](O)[C@H](C)O1", "note": "[doxorubicin]", "values": [
      {"measurement": "induction in apoptosis, single agent", "setting": "[4]", "result": "no significant induction in apoptosis"},
      {"measurement": "effect on pAkt-S473, single agent", "setting": "[5]", "result": "promotes an increase in Akt phosphorylation"}
    ]},
    {"compound": "Nc1ccn([C@@H]2O[C@H](CO)[C@@H](O)C2(F)F)c(=O)n1", "note": "[gemcitabine]", "values": [
      {"measurement": "effect on Akt phosphorylation (serine 473), single agent", "setting": "[6]", "result": "increased Akt phosphorylation on serine 473"}
    ]},
    {"compound": "N.N.[Cl][Pt][Cl]", "note": "[cisplatin]", "values": [
      {"measurement": "effect on pAkt-S473, single agent", "setting": "[7]", "result": "promotes an increase in Akt phosphorylation"}
    ]}
  ]
}
